In patent publication US8765783B2, “Pharmaceutical composition for treatment of disease due to vascular constriction or vasodilation” (Ono Pharmaceuticals Co., Ltd., priority 2002, dated 2014):
Entries after “also recorded” stand apart in the source; their conditions may differ.

Legend:
[1] = tested on: rat dural blood flow; test: Decrease of dural blood flow induced by S1P; format: in vivo; conditions: 10 mg/kg through femoral vein; S1P 300 μg/kg into cisterna
Source text: Rat (CD(SD)IGS, male, Charles River Japan Inc., 10 weeks old-13 weeks old, 450-520 g) was anesthetized by injection of urethane (1.2 g/kg, s.c.), placed in the femoral vein with catheter (polyethylene tube SP10; I.D. 0.28 mm, O.D. 0.61 mm: Natsume Seisakusho Co. Ltd.) for compounds administration, and then blood flow to brain through only vertebral artery was made to happen by tying both sides of common carotid arteries. Next, the scalp was cut open and the head region was exposed in order to measure dural blood flow and administer into cisterna. In addition, the trachea was placed with catheter (polyethylene tube; size 7.9: Hibiki) and it connected to the artificial respirator. The measurement of dural blood flow was performed to transmit with 1a ser light to skull using Moon Laser Doppler Imager (Moor LDI) [about 11cm distant from measuring object, about 150 dots both of XY measurement resolution, scanning about 2.8×2.8 cm area (150dots/2.8 cm)]. In addition, measurement condition involved in flux calculation (FLUX; relative value) such as sensitivity -gain etc., was integrated within all experiment. The images of blood flow were captured through the capture software, moor LDI Measurement V3.08, and image data was treated with analyzed software, moor LDI Image Processing V3.08. […]

[2] = tested on: removed rat heart; test: Removed rat heart (Langendorff heart); conditions: Langendorff heart mode
Source text: Rat (CD(SD)IGS, male, Charles River Japan Inc., 8 weeks old-10 weeks old, 300-450 g) was anesthetized by diethylether, opened the abdominal cavity, injected intravenously with heparin and then, exsanguinated to death. The heart was quickly removed by opening the chest cavity and the removed heart was immersed into cooled Krebs-Henseleit solution. The tissues were trimmed away under the cooling, aortic arches were inserted into the heart functional measuring equipment and fixed with sutures without leaking out. The rat heart function was measured using the heart functional measuring equipment (model IPH-W2, Labo-support). The equipment was used in the Langendorff Heart mode (non-working heart mode) and load was 68-70 mmHg. […] Catheter filled with physiological saline was inserted into the left ventricle, the catheter was connected to the piezotransducer (DX-100, Nihon Kohden) and the left ventricle pressure (LVP) was measured through strain compression amplifier (AP-601G, Nihon Kohden). Heart rate was calculated using LVP data with the heart rate measuring equipment (AT-601G, Nihon Kohden) and dLVP/dt was calculated with differential processor (EQ-641G, Nihon Kohden). Probes of electromagnetic flowmeter (model FF-020T, inside diameter 2 mm, Nihon Kohden) were set on the way to the passage of nutrient solution and the flow rate of nutrient solution (corresponding the blood flow rate of coronary artery) was measured using electromagnetic flowmeter (MFV-3100, Nihon Kohden). Administration of S1P and the compounds was performed by injection of dilution with nutrient solution into the passage of nutrient solution using infusion pump. The injection rate of drug solution was set as the flow rate of nutrient solution before starting of administration. […] Using the above mentioned model, effect of EDG-5 antagonist on heart function was examined. […] EDG-5 antagonist, the compound (1), the compound (2) and the compound (3) increased the flow rate of nutrient solution. In addition, they increased contractive force of heart muscle at the same time. […] It was considered that S1P had no direct chronotropic action and inotropic action on pacemaker and heart muscle and S1P had lowering effect on heart function by contracting the coronary blood vessels and ischemia.

SMILES: Cc1nn(C)c2nc(NNC(=O)Nc3cc(Cl)nc(Cl)c3)cc(C(C)C)c12 [compound (3), N-(2,6-dichloro-4-piridinyl)-2-(4-isopropyl-1,3-dimethyl-1H-pyrazolo[3,4-b]pyridin-6-yl)hydrazinecarboxamide]
- inhibition of decrease of dural blood flow by S1P [1]: inhibited; also recorded: suppression
- flow rate of nutrient solution (corresponding the blood flow rate of coronary artery) [2]: increased
- contractive force of heart muscle ([2]; EDG-5 antagonist): increased
